For assay [1], the target named is Polyunsaturated fatty acid lipoxygenase ALOX15 (Oryctolagus cuniculus) (UniProt P12530). The assay is described as follows: Inhibition of rabbit reticulocyte 15-lipoxygenase by compound (30 uM).
Assay [2] concerns MAC16. The assay is described as follows: Inhibitory activity against MAC16 cell lines. In kind it is functional, cell-based. The conditions noted are these: Mus musculus.
For a further assay, the system named is MAC13. The assay can be described thus: Inhibitory activity against MAC13 cell lines. In kind it is functional, cell-based. The conditions noted are these: Mus musculus.
Assay [3] relates to MAC16. The assay can be described thus: Effect on metabolism of arachidonic acid for 5-HETE production through 15-LOX (15-lipoxygenase) pathway. In kind it is functional, Mus musculus.
Assay [4] relates to MAC16. The assay is described as follows: Effect on metabolism of arachidonic acid for 5-HETE production through 12-LOX (12-lipoxygenase) pathway. In kind it is functional, Mus musculus.
Assay [5] concerns MAC16. The assay is described as follows: Effect on metabolism of arachidonic acid for 5-HETE production through 5-LOX (5-lipoxygenase) pathway. In kind it is functional, Mus musculus.
Assay [6] has as its system MAC16. The assay can be described thus: Effect on metabolism of arachidonic acid for 15-HETE production through 15-LOX (15-lipoxygenase) pathway. In kind it is functional, Mus musculus.
Assay [7] concerns MAC16. The assay is described as follows: Effect on metabolism of arachidonic acid for 12-HETE production through 12-LOX (12-lipoxygenase) pathway. In kind it is functional, Mus musculus.

SMILES strings stand for the structures.

The inhibition is the change of the read-out against control, counted positive when it falls. By IC50 is commonly meant the midpoint of a concentration-inhibition curve.

Chain of Polyunsaturated fatty acid lipoxygenase ALOX15 (Oryctolagus cuniculus) (P12530 whole entry, looked up): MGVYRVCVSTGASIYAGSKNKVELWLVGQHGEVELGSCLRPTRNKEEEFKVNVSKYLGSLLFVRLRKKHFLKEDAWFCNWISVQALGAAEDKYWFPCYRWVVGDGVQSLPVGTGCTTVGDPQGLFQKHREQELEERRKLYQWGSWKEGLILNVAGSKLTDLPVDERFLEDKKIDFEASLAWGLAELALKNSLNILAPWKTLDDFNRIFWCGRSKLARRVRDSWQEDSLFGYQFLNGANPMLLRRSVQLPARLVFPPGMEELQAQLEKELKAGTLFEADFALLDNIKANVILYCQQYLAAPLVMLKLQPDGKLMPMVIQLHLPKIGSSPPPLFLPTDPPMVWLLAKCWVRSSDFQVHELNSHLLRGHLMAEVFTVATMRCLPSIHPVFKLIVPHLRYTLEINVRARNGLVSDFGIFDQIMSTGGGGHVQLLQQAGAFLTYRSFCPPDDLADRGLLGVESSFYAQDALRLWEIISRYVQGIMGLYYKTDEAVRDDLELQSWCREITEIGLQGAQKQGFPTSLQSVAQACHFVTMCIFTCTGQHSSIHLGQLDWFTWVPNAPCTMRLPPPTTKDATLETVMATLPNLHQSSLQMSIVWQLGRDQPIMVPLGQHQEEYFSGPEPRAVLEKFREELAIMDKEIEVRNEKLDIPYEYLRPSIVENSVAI

For the compound `O=C(Nc1ccc(O)c(O)c1)c1ccc(NCc2ccccc2O)cc1`, in assay [1], the inhibition worked out at 103%.
`CC1=C(C)C(=O)C(Cc2cccnc2)=C(C)C1=O`: in assay [1], the inhibition is 3%. For the same compound, the concentration for half-maximal inhibition (IC50) was 4.75 µM in the assay on MAC16 [2] and 6.3 µM in the assay with MAC13. The figures for the Eicosanoid production in the assay on MAC16 [3], in the assay on MAC16 [4] and in the assay with MAC16 [5] were 22.2 pM 2hr-1, 15 pM 2hr-1 and 13.3 pM 2hr-1, respectively.
`O=C(Nc1ccc(NC(=O)c2ccccc2O)cc1)Nc1ccc(O)c(O)c1`: in assay [1], the inhibition was 104%.
In the case of `O=C(CCc1ccc(NC(=O)c2ccccc2O)cc1)Nc1ccc(O)c(O)c1`, the inhibition in assay [1] was found to be 99%.
In the case of `O=C(Nc1ccc(/N=C(\S)Nc2ccc(O)c(O)c2)cc1)c1ccccc1O`, in assay [1], the inhibition was 103%.
Turning to `O=C(CCc1cccc(NC(=O)c2ccccc2O)c1)Nc1ccc(O)c(O)c1`, in assay [1], the inhibition came to 102%. In addition, the IC50 with MAC16 [2] is 2.6 µM; in the assay on MAC13 it was 0.33 µM. Further, the figures for the Eicosanoid production in the assay on MAC16 [6], in the assay on MAC16 [5] and in the assay on MAC16 [7] were 5.3 pM 2hr-1, 4.7 pM 2hr-1 and 7.8 pM 2hr-1, respectively.
On to `O=C(Nc1ccc(O)c(O)c1)c1ccc(NC(=O)c2ccccc2O)cc1`, for which the inhibition in assay [1] is 100%.
Consider `CCCCCCCc1ccc(C(=O)Nc2ccc(O)c(O)c2)cc1`, for which the half-maximal inhibitory concentration (IC50) was 1 µM with MAC16 [2] and 0.9 µM with MAC13.
For `O=C(/C=C/c1ccc(NC(=O)c2ccccc2O)cc1)Nc1ccc(O)c(O)c1`, the inhibition in assay [1] was found to be 102%. In addition, the IC50 in the assay on MAC16 [2] is 300 µM; in the assay on MAC13, 3 µM.
`COc1ccccc1C(=O)Nc1ccc(CCC(=O)Nc2ccc3c(c2)OC(C)(CCc2ccccc2)O3)cc1` (configuration not stated): the IC50 with MAC16 [2] and in the assay on MAC13 was greater than 50 µM throughout. The Eicosanoid production was 91.5 pM 2hr-1 in the assay on MAC16 [3], 78 pM 2hr-1 with MAC16 [4] and 110 pM 2hr-1 in the assay with MAC16 [5].
